Data taken from US20260001928A1 (CORTERIA PHARMACEUTICALS, priority 2022, published 2026).
One block for each molecule: values may come before it. *1 amine or outer side, *2 acyl side, *3 side chain or, on linkers, in order; H or OH if unused. Where a SMILES comes first, the peptide text is derived from it. Where no end group is shown, it is not given here. Side-chain parts run from the residue outwards. [ ]: non-standard residue; d: D form. The star is where a group is joined. C20 diacid = O=C(O)CCCCCCCCCCCCCCCCCCC(=O)*; γGlu = O=C(O)[C@H](CCC(=O)[*:2])N[*:1]; NMeI = CC[C@H](C)[C@H](NC)C(=O)O; Decanoyl = CCCCCCCCCC(=O)*; Pentanoyl = CCCCC(=O)*; Aib = CC(C)(N)C(=O)O

Columns and labels:
human CRF2a receptor = target: T1, human CRF2a receptor (Homo sapiens, UniProt Q13324); experiment: Activity at human CRF2a receptor, cAMP functional assay in TeloHEAC cells; type: cell-based; conditions: TeloHEAC cells stably expressing human CRF2a receptor, relative to urocortin 2 (100 nM = 100%)
T1 construct: expressed in transfected cells; host or cells: TeloHEAC cells
T1 sequence (Q13324 1-411): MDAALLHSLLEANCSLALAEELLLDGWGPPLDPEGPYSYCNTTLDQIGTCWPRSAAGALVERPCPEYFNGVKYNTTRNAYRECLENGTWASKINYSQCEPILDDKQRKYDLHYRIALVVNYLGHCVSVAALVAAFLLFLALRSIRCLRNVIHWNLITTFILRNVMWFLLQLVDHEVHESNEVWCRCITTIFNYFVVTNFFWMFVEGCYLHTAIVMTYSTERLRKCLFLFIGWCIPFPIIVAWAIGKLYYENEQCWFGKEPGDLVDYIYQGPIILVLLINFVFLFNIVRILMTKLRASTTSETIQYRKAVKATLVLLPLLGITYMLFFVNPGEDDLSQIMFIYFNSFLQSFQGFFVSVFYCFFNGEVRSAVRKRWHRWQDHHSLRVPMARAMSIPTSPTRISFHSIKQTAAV
Outline: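 TeloHEAC cells stably expressing human CRF2a (10000 cells/well, suspended in HBSS/20 mM HEPES with 2 mM IBMX) were exposed to compounds for 30 min at 37 °C. cAMP was read as the 665/620 nm fluorescence ratio after 1 h at room temperature. EC50 was derived relative to 100 nM urocortin 2, set as 100%.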

CFR1R receptor = target: T2, CFR1R receptor (Homo sapiens, UniProt P34998); experiment: Activity at anti-target CFR1R receptor, cAMP assay in CRF1R-overexpression CHO-K1 cells; type: cell-based; conditions: 100% = Sauvagine at 100 nM
T2 construct: host or cells: CHO-K1 (clone 2)
T2 sequence (P34998 24-415): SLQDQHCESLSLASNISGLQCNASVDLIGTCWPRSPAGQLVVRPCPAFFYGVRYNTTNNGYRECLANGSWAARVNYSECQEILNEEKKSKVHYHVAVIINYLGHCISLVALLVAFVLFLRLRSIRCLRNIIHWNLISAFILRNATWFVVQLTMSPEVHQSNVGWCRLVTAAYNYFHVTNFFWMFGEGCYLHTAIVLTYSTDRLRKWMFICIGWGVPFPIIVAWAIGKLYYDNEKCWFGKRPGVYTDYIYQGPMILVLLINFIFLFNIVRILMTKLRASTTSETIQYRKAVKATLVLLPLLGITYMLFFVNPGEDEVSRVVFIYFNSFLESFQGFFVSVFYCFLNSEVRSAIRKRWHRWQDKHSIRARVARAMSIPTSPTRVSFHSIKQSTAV
Outline: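 Signal is normalised to 100 nM Sauvagine, taken as 100% activation, in clone 2 cells plated at a final 4000 cells/well from frozen stocks.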

[1] = In vitro subcutaneous tissue supernatant (SCts) stability and metabolite identification, rat; type: in vitro ADME; design: remaining at 2 h: dose or concentration left out as unconfirmed; conditions: male, Sprague Dawley; rat subcutaneous tissue supernatant (SCts), 37° C, 2 h
[2] = Chemical stability in buffer (pH 7.4 / pH 4.5), % purity loss; type: physicochemical; conditions: 100 mM phosphate buffer pH 7.4; 40° C. vs 5° C.; 14 or 28 days
Outline: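 Compounds dissolved at 10 mg/mL target in 100 mM phosphate (pH 7.4) or 100 mM acetate (pH 4.5) buffer for 1 h at room temperature, then centrifuged. Diluted supernatant stored at 5 °C or 40 °C for 14 or 28 days; % purity loss by LC-UV.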

[3] = Pharmacokinetics in male Sprague Dawley rats after subcutaneous administration; type: in vivo; conditions: plasma, rat, SC
Sprague Dawley rats = experiment: Effect on systolic blood pressure, telemetry in Sprague Dawley rats; type: in vivo, rat; conditions: 0.1 mg/kg SC
Outline: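 Sprague Dawley rats with abdominal-aorta telemetry catheters, recovered ≥10 days, received 0.1 mg/kg SC of compound or vehicle. Systolic pressure recorded 1 h pre-dose as baseline, then continuously up to 48 hours, expressed as % change from baseline; duration of action is last time point with a BP effect (n=2).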

[4] = Pharmacokinetics in male Sprague Dawley rats after subcutaneous administration; type: in vivo; conditions: plasma, rat
[5] = target: T3, CRF1R (corticotropin-releasing factor receptor 1), on the CRF1R-overexpression CHO-K1 cell line clone 2 (UniProt P34998 24-415, limits assumed); experiment: cell-based or functional assay
T3 sequence (looked up): T2 sequence (P34998 24-415)

EC50 (human CRF2a receptor): 0.16 nM
Emax (% I) (CFR1R receptor): 48 % I
remaining at 2 h [1]: 71%
Buffer stability pH 7.4 % purity loss [2]: −2.1/Not Tested %
AUC(0-t) ([3]; 0.1 mg/kg): 4520 ng·h/mL
Cmax ([3]; 0.1 mg/kg): 156 ng/mL
AUC(0-t) ([4]; IV, 0.05 mg/kg): 5320 ng·h/mL
half-life ([4]; IV, 0.05 mg/kg): 6 h
Tmax ([4]; SC, 0.1 mg/kg): 8 h
half-life ([4]; SC, 0.1 mg/kg): 15 h
Molecule: CCCCC(=O)N[C@H](C(=O)N[C@@H](CC(C)C)C(=O)N[C@@H](CO)C(=O)N[C@@H](CC(C)C)C(=O)N[C@@H](CC(=O)O)C(=O)N[C@@H](C(=O)N1CCC[C@H]1C(=O)N[C@H](C(=O)N[C@@H](CCCCN)C(=O)N[C@@H](CC(C)C)C(=O)N[C@@H](CCCCNC(=O)CC[C@H](NC(=O)CCCCCCCCCCCCCCCCCCC(=O)O)C(=O)O)C(=O)N[C@@H](CCCCN)C(=O)N[C@H](C(=O)N[C@@H](CC(C)C)C(=O)N[C@@H](CC(C)C)C(=O)N[C@@H](CCC(=O)O)C(=O)N[C@@H](CCC(N)=O)C(=O)N[C@@H](CCC(=O)O)C(=O)N[C@@H](CCCCN)C(=O)N[C@@H](CCC(N)=O)C(=O)N[C@@H](CCCCN)C(=O)N[C@@H](CCCCN)C(=O)N[C@@H](CCC(N)=O)C(=O)N[C@@H](CCCNC(=N)N)C(=O)N[C@@H](CCC(=O)O)C(=O)N[C@@H](CCC(N)=O)C(=O)N[C@@H](C)C(=O)N[C@@H](CCC(=O)O)C(=O)N[C@H](C(=O)N[C@@H](CC(N)=O)C(=O)NC(C)(C)C(=O)N[C@@H](CCC(N)=O)C(=O)N[C@H](C(=O)N[C@@H](CC(C)C)C(=O)N[C@@H](C)C(=O)N[C@@H](CCC(N)=O)C(=O)N[C@H](C(N)=O)C(C)C)[C@@H](C)CC)[C@@H](C)O)[C@@H](C)CC)[C@@H](C)CC)C(C)C)C(C)C [compound 219] (Pentanoyl-VLSLD[dV]PIKLK([γGlu-C20 diacid])KILLEQEKQKKQREQAETN[Aib]QILAQV-NH2)
Systolic blood pressure (Mean) % change from baseline, 8 h (Sprague Dawley rats; 8 h, n=2): −10%
Systolic blood pressure (Mean) % change from baseline, 12 h (Sprague Dawley rats; 12 h, n=2): −13%
Systolic blood pressure (Mean) % change from baseline, 24 h (Sprague Dawley rats; 24 h, n=2): −10%
Duration of action (Sprague Dawley rats; last time point with an effect on BP still observed): >24 h

EC50 (human CRF2a receptor): 0.08 nM
Emax (% I) (CFR1R receptor): 58 % I
remaining at 2 h [1]: 79%
Buffer stability pH 7.4 % purity loss [2]: −0.1/Not Tested %
AUC(0-t) ([3]; 0.05 mg/kg): 698 ng·h/mL
Cmax ([3]; 0.05 mg/kg): 67 ng/mL
Tmax ([3]; 0.05 mg/kg): 2 h
half-life ([3]; 0.05 mg/kg): 6.5 h
AUC(0-t) ([4]; IV, 0.025 mg/kg): 1920 ng·h/mL
half-life ([4]; IV, 0.025 mg/kg): 2.8 h
Molecule: CCCCCCCCCC(=O)N[C@H](C(=O)N[C@@H](CC(C)C)C(=O)N[C@@H](CO)C(=O)N[C@@H](CC(C)C)C(=O)N[C@@H](CC(=O)O)C(=O)N[C@@H](C(=O)N1CCC[C@H]1C(=O)N[C@H](C(=O)N[C@@H](CCCCN)C(=O)N[C@@H](CC(C)C)C(=O)N[C@@H](CCCCNC(=O)CC[C@H](NC(=O)CCCCCCCCCCCCCCCCCCC(=O)O)C(=O)O)C(=O)N[C@@H](CCCCN)C(=O)N[C@H](C(=O)N[C@@H](CC(C)C)C(=O)N[C@@H](CC(C)C)C(=O)N[C@@H](CCC(=O)O)C(=O)N[C@@H](CCC(N)=O)C(=O)N[C@@H](CCC(=O)O)C(=O)N[C@@H](CCCCN)C(=O)N[C@@H](CCC(N)=O)C(=O)N[C@@H](CCCCN)C(=O)N[C@@H](CCCCN)C(=O)N[C@@H](CCC(N)=O)C(=O)N[C@@H](CCCNC(=N)N)C(=O)N[C@@H](CCC(=O)O)C(=O)N[C@@H](CCC(N)=O)C(=O)N[C@@H](C)C(=O)N[C@@H](CCC(=O)O)C(=O)N[C@H](C(=O)N[C@@H](CC(N)=O)C(=O)NC(C)(C)C(=O)N[C@@H](CCC(N)=O)C(=O)N[C@H](C(=O)N[C@@H](CC(C)C)C(=O)N[C@@H](C)C(=O)N[C@@H](CCC(N)=O)C(=O)N[C@H](C(N)=O)C(C)C)[C@@H](C)CC)[C@@H](C)O)[C@@H](C)CC)[C@@H](C)CC)C(C)C)C(C)C [compound 223] (Decanoyl-VLSLD[dV]PIKLK([γGlu-C20 diacid])KILLEQEKQKKQREQAETN[Aib]QILAQV-NH2)

EC50 [nM] (cAMP, CRF1R-overexpression CHO-K1 cells) [5]: 90.5 nM
Emax (% I) (cAMP, 100% = Sauvagine at 100 nM) [5]: 62 % I
B1: peptide of SEQ ID NO: 228 (peptide)
peptide: Pentanoyl-VLSLD[dV]PIGLK([γGlu-C20 diacid])KILLEQEKQKKQREQAETN[Aib]QILAQV-NH2
SMILES: CCCCC(=O)N[C@H](C(=O)N[C@@H](CC(C)C)C(=O)N[C@@H](CO)C(=O)N[C@@H](CC(C)C)C(=O)N[C@@H](CC(=O)O)C(=O)N[C@@H](C(=O)N1CCC[C@H]1C(=O)N[C@H](C(=O)NCC(=O)N[C@@H](CC(C)C)C(=O)N[C@@H](CCCCNC(=O)CC[C@H](NC(=O)CCCCCCCCCCCCCCCCCCC(=O)O)C(=O)O)C(=O)N[C@@H](CCCCN)C(=O)N[C@H](C(=O)N[C@@H](CC(C)C)C(=O)N[C@@H](CC(C)C)C(=O)N[C@@H](CCC(=O)O)C(=O)N[C@@H](CCC(N)=O)C(=O)N[C@@H](CCC(=O)O)C(=O)N[C@@H](CCCCN)C(=O)N[C@@H](CCC(N)=O)C(=O)N[C@@H](CCCCN)C(=O)N[C@@H](CCCCN)C(=O)N[C@@H](CCC(N)=O)C(=O)N[C@@H](CCCNC(=N)N)C(=O)N[C@@H](CCC(=O)O)C(=O)N[C@@H](CCC(N)=O)C(=O)N[C@@H](C)C(=O)N[C@@H](CCC(=O)O)C(=O)N[C@H](C(=O)N[C@@H](CC(N)=O)C(=O)NC(C)(C)C(=O)N[C@@H](CCC(N)=O)C(=O)N[C@H](C(=O)N[C@@H](CC(C)C)C(=O)N[C@@H](C)C(=O)N[C@@H](CCC(N)=O)C(=O)N[C@H](C(N)=O)C(C)C)[C@@H](C)CC)[C@@H](C)O)[C@@H](C)CC)[C@@H](C)CC)C(C)C)C(C)C

EC50 [nM] (cAMP, CRF1R-overexpression CHO-K1 cells) [5]: 203 nM
Emax (% I) (cAMP, 100% = Sauvagine at 100 nM) [5]: 43 % I
B2: peptide of SEQ ID NO: 229 (peptide)
peptide: [NMeI]VLSLD[dV]PIGLK([γGlu-C20 diacid])KILLEQEKQKKQREQAETN[Aib]QILAQV-NH2
modifications: N-terminus assumed
SMILES: CC[C@H](C)[C@H](NC)C(=O)N[C@H](C(=O)N[C@@H](CC(C)C)C(=O)N[C@@H](CO)C(=O)N[C@@H](CC(C)C)C(=O)N[C@@H](CC(=O)O)C(=O)N[C@@H](C(=O)N1CCC[C@H]1C(=O)N[C@H](C(=O)NCC(=O)N[C@@H](CC(C)C)C(=O)N[C@@H](CCCCNC(=O)CC[C@H](NC(=O)CCCCCCCCCCCCCCCCCCC(=O)O)C(=O)O)C(=O)N[C@@H](CCCCN)C(=O)N[C@H](C(=O)N[C@@H](CC(C)C)C(=O)N[C@@H](CC(C)C)C(=O)N[C@@H](CCC(=O)O)C(=O)N[C@@H](CCC(N)=O)C(=O)N[C@@H](CCC(=O)O)C(=O)N[C@@H](CCCCN)C(=O)N[C@@H](CCC(N)=O)C(=O)N[C@@H](CCCCN)C(=O)N[C@@H](CCCCN)C(=O)N[C@@H](CCC(N)=O)C(=O)N[C@@H](CCCNC(=N)N)C(=O)N[C@@H](CCC(=O)O)C(=O)N[C@@H](CCC(N)=O)C(=O)N[C@@H](C)C(=O)N[C@@H](CCC(=O)O)C(=O)N[C@H](C(=O)N[C@@H](CC(N)=O)C(=O)NC(C)(C)C(=O)N[C@@H](CCC(N)=O)C(=O)N[C@H](C(=O)N[C@@H](CC(C)C)C(=O)N[C@@H](C)C(=O)N[C@@H](CCC(N)=O)C(=O)N[C@H](C(N)=O)C(C)C)[C@@H](C)CC)[C@@H](C)O)[C@@H](C)CC)[C@@H](C)CC)C(C)C)C(C)C
